Assays:
[1] = Cytotoxicity against HEK cells; format: cell-based; details: Homo sapiens, HEK293
Plasmodium falciparum = test: Antiplasmodial activity against Plasmodium falciparum; format: functional, organism-based
Trypanosoma brucei = test: Antitrypanosomal activity against bloodstream Trypanosoma brucei P2 by Alamar blue assay; format: functional, organism-based
[2] = Lipophilicity, log P of the compound; format: physicochemical; details: octanol/water

Row | Structure (SMILES) | EC50 [1] [µM] | EC50 (Plasmodium falciparum) [µM] | EC50 (Trypanosoma brucei) [µM] | logP [2]
1 | c1ccc2c(c1)ccc1ccc(C3CNCCNCCNCCN3)cc12 (stereo unspecified) | 24.9 | < 1.5 | 1.3 | 
2 | N=C(N)NCc1ccc(C2CNCCNCCNCCN2)cc1 (stereo unspecified) | > 200 | > 100 | 41.2 | -1.64
3 | N=C(N)c1ccc(C2CNCCNCCNCCN2)cc1 (stereo unspecified) | > 200 | > 100 | 22 | -1.44
4 | O=C(Nc1ccc([N+](=O)[O-])cc1)OCCN1CCN(CCOC(=O)Nc2ccc([N+](=O)[O-])cc2)CCN(CCOC(=O)Nc2ccc([N+](=O)[O-])cc2)CCN(CCOC(=O)Nc2ccc([N+](=O)[O-])cc2)CC1 | 1.3 |  | 0.5 | 
5 | NCc1ccc(C2CNCCNCCNCCN2)cc1 (stereo unspecified) | > 200 | > 100 | > 200 | -1.12
6 | N#Cc1ccc(C2CNCCNCCNCCN2)cc1 (stereo unspecified) | > 200 | > 100 | > 200 | -0.65

Reference: ChEMBL document CHEMBL1142482, “Synthesis of novel benzamidine- and guanidine-derived polyazamacrocycles: Selective anti-protozoal activity for human African trypanosomiasis” (Bioorg Med Chem Lett, 2008)
